The structures appear in SMILES notation. Like-named read-outs stand apart in the source and are kept apart here.

The subject of test [1] is TRPV1. The note with it: cited from earlier work; for EC50: read-out: TRPV1 EC50 (potency); for IC50: read-out: TRPV1 IC50 (desensitization).
Test [2] concerns the target T1, human TRPV1 (Homo sapiens, UniProt Q8NER1).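 As to Emax: percent of maximal Ca2+ influx with 4 µM ionomycin.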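 As to TRPV1 Eff. %: percent of maximal Ca2+ influx with 4 µM ionomycin.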
T1 construct: expressed in transfected cells
Nature of the test: cell-based. The note with it: for Emax: HEK293, read-out: TRPV1 Eff. %.

Test [3] has as its target T2, rat TRPA1 (Rattus norvegicus, UniProt Q6RI86).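 As to Emax: percent of maximal Ca2+ influx with 100 µM AITC.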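 As to TRPA1 Eff. %: percent of maximal Ca2+ influx with 100 µM AITC.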
T2 construct: expressed in transfected cells
Nature of the test: cell-based. The settings on record: for Emax: HEK293, read-out: TRPA1 Eff. %.

T2 sequence (Q6RI86 whole entry): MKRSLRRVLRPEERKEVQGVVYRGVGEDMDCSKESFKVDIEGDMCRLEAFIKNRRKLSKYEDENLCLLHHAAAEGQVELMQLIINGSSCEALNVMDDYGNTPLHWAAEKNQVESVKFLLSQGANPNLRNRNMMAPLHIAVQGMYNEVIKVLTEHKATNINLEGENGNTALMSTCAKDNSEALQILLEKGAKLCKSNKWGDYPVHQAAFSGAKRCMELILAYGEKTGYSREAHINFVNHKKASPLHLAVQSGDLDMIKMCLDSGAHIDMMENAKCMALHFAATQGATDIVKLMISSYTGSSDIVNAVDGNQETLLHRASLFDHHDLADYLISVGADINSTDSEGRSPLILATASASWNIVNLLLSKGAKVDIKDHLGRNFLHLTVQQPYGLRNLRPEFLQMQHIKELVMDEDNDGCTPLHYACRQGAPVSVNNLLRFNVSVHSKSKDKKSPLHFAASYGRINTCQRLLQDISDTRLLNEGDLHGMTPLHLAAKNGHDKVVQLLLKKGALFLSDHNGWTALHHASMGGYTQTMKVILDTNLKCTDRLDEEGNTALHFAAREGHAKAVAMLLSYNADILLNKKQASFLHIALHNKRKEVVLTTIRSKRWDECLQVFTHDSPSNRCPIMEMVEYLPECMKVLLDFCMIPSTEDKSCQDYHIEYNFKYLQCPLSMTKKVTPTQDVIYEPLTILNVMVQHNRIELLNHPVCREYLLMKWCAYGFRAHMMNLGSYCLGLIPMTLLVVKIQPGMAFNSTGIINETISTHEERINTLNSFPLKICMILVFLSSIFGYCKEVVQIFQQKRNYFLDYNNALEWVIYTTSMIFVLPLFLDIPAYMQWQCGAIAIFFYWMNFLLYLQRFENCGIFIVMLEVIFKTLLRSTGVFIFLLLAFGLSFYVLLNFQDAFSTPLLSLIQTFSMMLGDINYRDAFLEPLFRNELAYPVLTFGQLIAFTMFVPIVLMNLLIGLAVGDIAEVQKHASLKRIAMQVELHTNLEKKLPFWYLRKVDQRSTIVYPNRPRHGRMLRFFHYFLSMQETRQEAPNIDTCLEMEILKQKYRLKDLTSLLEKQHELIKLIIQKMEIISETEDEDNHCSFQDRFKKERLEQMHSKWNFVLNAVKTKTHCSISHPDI
T1 sequence (Q8NER1 whole entry): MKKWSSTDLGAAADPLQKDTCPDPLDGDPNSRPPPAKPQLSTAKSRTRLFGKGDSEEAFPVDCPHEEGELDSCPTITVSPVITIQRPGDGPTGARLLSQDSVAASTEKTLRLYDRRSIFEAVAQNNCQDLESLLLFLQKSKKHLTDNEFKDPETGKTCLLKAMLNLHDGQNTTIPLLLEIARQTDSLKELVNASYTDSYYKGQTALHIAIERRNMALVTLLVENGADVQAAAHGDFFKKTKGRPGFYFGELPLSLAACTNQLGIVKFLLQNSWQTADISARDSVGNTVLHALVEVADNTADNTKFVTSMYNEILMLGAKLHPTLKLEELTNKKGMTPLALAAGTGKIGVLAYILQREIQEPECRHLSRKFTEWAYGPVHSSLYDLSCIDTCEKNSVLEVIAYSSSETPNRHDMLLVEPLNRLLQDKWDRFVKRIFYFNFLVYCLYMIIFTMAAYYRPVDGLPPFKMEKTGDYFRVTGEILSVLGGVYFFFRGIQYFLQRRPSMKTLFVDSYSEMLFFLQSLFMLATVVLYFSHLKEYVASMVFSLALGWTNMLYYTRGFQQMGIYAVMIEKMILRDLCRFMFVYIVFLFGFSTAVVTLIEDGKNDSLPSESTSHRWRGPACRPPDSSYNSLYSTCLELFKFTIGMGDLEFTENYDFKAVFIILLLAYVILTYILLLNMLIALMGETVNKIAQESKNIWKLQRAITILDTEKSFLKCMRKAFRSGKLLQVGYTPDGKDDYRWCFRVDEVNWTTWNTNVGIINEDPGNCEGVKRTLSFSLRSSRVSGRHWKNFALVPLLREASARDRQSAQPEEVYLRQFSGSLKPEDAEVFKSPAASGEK

As for `COc1cc(CNC(=O)CCCc2ccc(I)s2)ccc1O` [4a], in test [1], the concentration giving a half-maximal response (EC50) is 0.0074 µM and the IC50 was 0.0051 µM.
Turning to `COc1cc(CNC(=O)CCCc2ccc(-c3cccnc3)s2)ccc1O` [4b], in test [1], the concentration giving a half-maximal response (EC50) was 0.0764 µM and the IC50 is 0.145 µM.
Consider `COc1cc(CNC(=O)CCCc2ccc(-c3ccccc3)s2)ccc1O` [4c], for which, in test [1], the EC50 was 0.0016 µM and the IC50 is 0.0017 µM.
With `COc1cc(CNC(=O)CCCc2ccccc2)ccc1O` [4d], in test [1], the EC50 was 0.109 µM and the IC50 was 0.273 µM.
As to `O=C(Nc1ccc(O)cc1)c1cc2ccccc2[nH]1` [5a, N-(4-Hydroxyphenyl)-1H-indole-2-carboxamide], in test [2], the midpoint of the response, the EC50, lay at 2.3 ± 0.1 µM; the IC50 is 10 ± 3.9 µM; the Emax worked out at 54%. In test [3], the IC50 is over 100 µM and the Emax is under 10%.
In the case of `O=C(NCc1ccccc1)c1cc2ccccc2[nH]1` [5b, N-Benzyl-1H-indole-2-carboxamide], the IC50 in test [2] and in test [3] was over 100 µM throughout. The Emax in test [2] and in test [3] was under 10% each time.
As for `O=C(NCc1ccc(O)cc1)c1cc2ccccc2[nH]1` [5c, N-(4-Hydroxybenzyl)-1H-indole-2-carboxamide], in test [2], the EC50 was over 10 µM, the IC50 is over 50 µM and the Emax was 47.2 ± 0.3%. Besides, in test [3], the IC50 is over 100 µM and the Emax was under 10%.
As for `COc1ccc(CNC(=O)c2cc3ccccc3[nH]2)cc1` [5d, N-(4-Methoxybenzyl)-1H-indole-2-carboxamide], in test [2], the IC50 is over 50 µM and the Emax was under 10%. In addition, in test [3], the EC50 was over 50 µM, the IC50 was over 100 µM and the Emax is 39.1 ± 3.5%.
For `O=C(NCc1ccc(F)cc1)c1cc2ccccc2[nH]1` [5e, N-(4-Fluorobenzyl)-1H-indole-2-carboxamide], in test [2], the IC50 is over 100 µM and the Emax is under 10%. Moreover, in test [3], the EC50 was determined as 23.7 ± 2.1 µM, the IC50 is over 50 µM and the Emax worked out at 42.8 ± 1.8%.
Consider `COc1cc(CNC(=O)c2cc3ccccc3[nH]2)ccc1O` [5f, N-(4-Hydroxy-3-methoxybenzyl)-1H-indole-2-carboxamide], for which, in test [2], the EC50 worked out at 0.56 ± 0.08 µM, the IC50 was 1.03 ± 0.09 µM, the “TRPV1 Eff. %” value was found to be 66.8 ± 1.3% and the Emax is 66.8%.
Regarding `O=C(NCc1ccc(Cl)c(Cl)c1)c1cc2ccccc2[nH]1` [5g, N-(3,4-Dichlorobenzyl)-1H-indole-2-carboxamide], in test [2], the IC50 is over 100 µM and the Emax is under 10%.
For `O=C(NCc1ccc(F)c(F)c1)c1cc2ccccc2[nH]1` [5h, N-(3,4-Difluorobenzyl)-1H-indole-2-carboxamide], in test [2], the IC50 is over 100 µM and the Emax is under 10%. In test [3], the 50% effective concentration (EC50) came out at 19.1 ± 3.1 µM, the IC50 is over 50 µM and the Emax fell in the range of 68.4 to 101%.
For the compound `O=C(NCCc1ccc(O)c(O)c1)c1cc2ccccc2[nH]1` [5i, N-(3,4-Dihydroxyphenethyl)-1H-indole-2-carboxamide], in test [2], it took 8.1 ± 0.1 µM to reach a half-maximal effect (EC50), the IC50 came to 2.1 ± 0.1 µM, the “TRPV1 agonist behaviour (in words)” value is reported as “very weak agonist” and the Emax was found to be 37.3 ± 0.1%.
Take `Cn1c(C(=O)Nc2ccc(O)cc2)cc2ccccc21` [6a, N-(4-Hydroxyphenyl)-1-methyl-1H-indole-2-carboxamide]: in test [2], the EC50 amounted to 0.34 ± 0.01 µM, the IC50 turned out to be 0.72 ± 0.08 µM and the Emax is over 60%. In addition, in test [3], the EC50 stood at 22.7 ± 1.7 µM, the IC50 was over 50 µM and the Emax came out at 42.9 ± 0.5%.
For the compound `Cn1c(C(=O)Nc2ccc(F)cc2)cc2ccccc21` [6b, N-(4-Fluorophenyl)-1-methyl-1H-indole-2-carboxamide], in test [2], the response was half-maximal at 3.5 ± 2.1 µM (EC50), the IC50 was determined as 6.9 ± 2.6 µM, the “TRPV1 Eff. %” value is 34.4 ± 4.5% and the Emax was 34.4%. Also, in test [3], the EC50 stood at 2 ± 1.1 µM, the IC50 came to 5.2 ± 0.4 µM, the “TRPA1 Eff. %” value is 78.6 ± 9.7% and the “TRPA1 agonist behaviour (in words)” value is listed as “very good TRPA1 agonist”. Moreover, the Emax in test [3] is 78.6%.
For the compound `Cn1c(C(=O)NCc2ccccc2)cc2ccccc21` [6c, N-Benzyl-1-methyl-1H-indole-2-carboxamide], in test [2], the IC50 is over 50 µM and the Emax was under 10%. Also, in test [3], the IC50 is over 50 µM and the Emax is under 10%.
In the case of `Cn1c(C(=O)NCc2ccc(O)cc2)cc2ccccc21` [6d, N-(4-hydroxybenzyl)-1-methyl-1H-indole-2-carboxamide], in test [2], the EC50 was 1.1 ± 0.1 µM, the IC50 was found to be 19.2 ± 6.7 µM, the “TRPV1 Eff. %” value was 27.6 ± 0.3% and the Emax was determined as 27.6%. In test [3], the IC50 was over 100 µM and the Emax was under 10%.
Take `COc1ccc(CNC(=O)c2cc3ccccc3n2C)cc1` [6e, N-(4-methoxybenzyl)-1-methyl-1H-indole-2-carboxamide]: in test [2], the IC50 is over 10 µM and the Emax is under 10%. For the same compound, in test [3], the EC50 was 20.3 ± 1.1 µM, the IC50 is over 50 µM and the Emax was 81.3 ± 1.8%.
Turning to `Cn1c(C(=O)NCc2ccc(F)cc2)cc2ccccc21` [6f, N-(4-fluorobenzyl)-1-methyl-1H-indole-2-carboxamide], in test [2], the IC50 is over 100 µM and the Emax was under 10%. In addition, in test [3], the EC50 was determined as 20.4 ± 6.9 µM and the IC50 came out at 33.5 ± 3.2 µM.
Take `COc1cc(CNC(=O)c2cc3ccccc3n2C)ccc1O` [6g, N-(4-hydroxy-3-methoxybenzyl)-1-methyl-1H-indole-2-carboxamide]: in test [2], a half-maximal response (EC50) required 0.0365 µM and the Emax is over 60%. The IC50 in test [2] (read-out: TRPV1 IC50 (antagonism/desensitization)) turned out to be 0.0535 ± 0.048 µM. Further, in test [3], the EC50 was over 50 µM, the IC50 was over 100 µM and the Emax turned out to be 59.8 ± 1.6%.
In the case of `Cn1c(C(=O)NCc2ccc(Cl)c(Cl)c2)cc2ccccc21` [6h, N-(3,4-Dichlorobenzyl)-1-methyl-1H-indole-2-carboxamide], in test [2], the IC50 worked out at 16.4 ± 0.5 µM and the Emax was under 10%.
For `Cn1c(C(=O)NCc2ccc(F)c(F)c2)cc2ccccc21` [6i, N-(3,4-Difluorobenzyl)-1-methyl-1H-indole-2-carboxamide], in test [2], the IC50 was over 100 µM and the Emax is under 10%. Moreover, in test [3], the EC50 was found to be 10.9 ± 0.9 µM, the IC50 worked out at 32.2 ± 3.2 µM and the Emax lay in the range of 68.4 to 101%.
With `Cn1c(C(=O)NCCc2ccc(O)c(O)c2)cc2ccccc21` [6j, N-(3,4-Dihydroxyphenethyl)-1-methyl-1H-indole-2-carboxamide], in test [2], a half-maximal effect (EC50) was put at 0.18 ± 0.05 µM, the IC50 stood at 0.26 ± 0.02 µM and the Emax was over 60%.
Turning to `COc1cc(CNC(=O)CCCC/C=C/C(C)C)ccc1O` [capsaicin], the IC50 in test [1] was […].
Regarding `COc1cc(CNC(=O)CCCc2cccs2)ccc1O` [compound 2, N-(4-Hydroxy-3-Methoxybenzyl)-4-(Thiophen-2-yl)Butanamide], in test [1], the EC50 is 0.87 µM and the IC50 was 1.3 µM.
`COc1cc(CNC(=O)CCCCC2CCSS2)ccc1O` (stereo not drawn) [compound 3]: in test [1], the EC50 is 0.13 µM and the IC50 was 0.13 µM.

(Values after PMC11820618 (Molecules, 2025).)
